How the values were obtained:
[1] = test system: castrated (ORX) male Sprague-Dawley rats; test: Anabolic and androgenic activity in castrated (ORX) male rats, daily oral gavage for fourteen days; format: in vivo, rat; conditions: ORX rats
Procedure: Male Sprague-Dawley rats weighing approximately 200 g were purchased from Harlan Bioproducts for Science (Indianapolis, Ind.).
The test article for this study was weighed and dissolved in 10% DMSO (Fisher) diluted with PEG 300 (Acros Organics, N.J.) for preparation of the appropriate dosage concentrations. […] Animals were randomly assigned to one of seven groups consisting of 4 to 5 animals per group. Control groups (intact and ORX) were administered vehicle daily. […] Where appropriate, animals were castrated on day one of the study.
(§1) In addition, ventral prostate, seminal vesicles, and levator ani muscle were removed, individually weighed, normalized to body weight, and expressed as a percentage of intact control. Student's T-test was used to compare individual dose groups to the intact control group. Significance was defined a priori as a P-value<0.05. Ventral prostate and seminal vesicle weights were evaluated as a measure of androgenic activity, whereas levator ani muscle weight was evaluated as a measure of anabolic activity. Blood was collected from the abdominal aorta, centrifuged, and sera were frozen at −80° C. prior to determination of serum hormone levels. Serum luteinizing hormone (LH) and follicle stimulating hormone (FSH) concentrations were determined.
(§2) The test article for this study was weighed and dissolved in 10% DMSO (Fisher) diluted with PEG 300 (Acros Organics, N.J.) for preparation of the appropriate dosage concentrations. […] Animals were randomly assigned to one of seven groups consisting of 4 to 5 animals per group. Control groups (intact and ORX) were administered vehicle daily. Compound of formula S-XXIII was administered via oral gavage at doses of 0.01, 0.03, 0.1, 0.3, 0.75, and 1 mg/day to both intact and ORX groups. Where appropriate, animals were castrated on day one of the study. Treatment with compound of formula S-XXIII began nine days post ORX and was administered daily via oral gavage for fourteen days.
Male Sprague-Dawley rats weighing approximately 200 g were purchased from Harlan Bioproducts for Science (Indianapolis, Ind.). […] Regenerative effects of the compound of formula S-XXIV in chronically (9 days) ORX rats was similarly evaluated.
as §2, with “S-XXIV” for “S-XXIII”
Male Sprague-Dawley rats weighing approximately 200 g were purchased from Harlan Bioproducts for Science (Indianapolis, Ind.). […] Anabolic and androgenic activity of compound of formula S-XXV in intact animals was evaluated, and the dose response in acutely orchidectomized (ORX) animals was evaluated as well.
The compound was weighed and dissolved in 10% DMSO (Fisher) diluted with PEG 300 (Acros Organics, N.J.) for preparation of the appropriate dosage concentrations.

[2] = test system: intact male Sprague-Dawley rats; test: Anabolic and androgenic activity in intact male rats, daily oral gavage; format: in vivo, rat
Procedure: The test article for this study was weighed and dissolved in 10% DMSO (Fisher) diluted with PEG 300 (Acros Organics, N.J.) for preparation of the appropriate dosage concentrations. The animals were housed in groups of 2 to 3 animals per cage. Animals were randomly assigned to one of seven groups consisting of 4 to 5 animals per group. Control groups (intact and ORX) were administered vehicle daily. […] Where appropriate, animals were castrated on day one of the study. Treatment with compound of formula S-II began nine days post ORX and was administered daily via oral gavage for fourteen days.
as §1, with “The animals were sacrificed under anesthesia (ketamine/xyalzine, 87:13 mg/kg) and body weights were recorded. In” for “In”
(§3) The test article for this study was weighed and dissolved in 10% DMSO (Fisher) diluted with PEG 300 (Acros Organics, N.J.) for preparation of the appropriate dosage concentrations. The animals were housed in groups of 2 to 3 animals per cage. Animals were randomly assigned to one of seven groups consisting of 4 to 5 animals per group. Control groups (intact and ORX) were administered vehicle daily. Compound of formula S-XXIII was administered via oral gavage at doses of 0.01, 0.03, 0.1, 0.3, 0.75, and 1 mg/day to both intact and ORX groups. Where appropriate, animals were castrated on day one of the study. Treatment with compound of formula S-XXIII began nine days post ORX and was administered daily via oral gavage for fourteen days.
as §3, with “S-XXIV” for “S-XXIII”, “study.” for “study. Treatment with compound of formula S-XXIII began nine days post ORX and was administered daily via oral gavage for fourteen days.”

In the case of `C[C@](O)(COc1ccc(Cl)c(F)c1)C(=O)Nc1ccc(C#N)c(C(F)(F)F)c1` [S-II, (S)-3-(4-chloro-3-fluorophenoxy)-N-(4-cyano-3-(trifluoromethyl)phenyl)-2-hydroxy-2-methylpropanamide], the “Levator ani muscle weight” value ([1]; 0.01 mg/day oral) is reported as 50%±5%, the Prostate weight ([1]; 0.01 mg/day oral) is reported as 12%±3% and the Seminal vesicle weight ([1]; 0.01 mg/day oral) is reported as 11%±1%. For the same compound, the “Levator ani muscle weight” value ([1]; 0.03 mg/day oral) was 62%±6%, the Prostate weight ([1]; 0.03 mg/day oral) was 26%±7% and the Seminal vesicle weight ([1]; 0.03 mg/day oral) was 11%±1%. The “Levator ani muscle weight” value ([1]; 0.1 mg/day oral) was 89%±10%, the Prostate weight ([1]; 0.1 mg/day oral) was 39%±6% and the Seminal vesicle weight ([1]; 0.1 mg/day oral) was 27%±14%. The “Levator ani muscle weight” value ([1]; 0.3 mg/day oral) was 118%±6%, the Prostate weight ([1]; 0.3 mg/day oral) was 60%±14% and the Seminal vesicle weight ([1]; 0.3 mg/day oral) was 58%±18%. The “Levator ani muscle weight” value ([1]; 0.75 mg/day oral) was 134%±8%, the Prostate weight ([1]; 0.75 mg/day oral) was 88%±16% and the Seminal vesicle weight ([1]; 0.75 mg/day oral) was 86%±12%. For the same compound, the Seminal vesicle weight ([1]; 1 mg/day oral) was 100%±8%, the “Levator ani muscle weight” value ([2]; 0.01 mg/day oral) was 100%±10% and the Prostate weight ([2]; 0.01 mg/day oral) was 117%±20%. The “Levator ani muscle weight” value ([2]; 0.03 mg/day oral) was 98%±7%, the Prostate weight ([2]; 0.03 mg/day oral) was 98%±15% and the “Levator ani muscle weight” value ([2]; 0.1 mg/day oral) was 110%±5%. The Prostate weight ([2]; 0.1 mg/day oral) was 82%±20%, the “Levator ani muscle weight” value ([2]; 0.3 mg/day oral) was 110%±5% and the Prostate weight ([2]; 0.3 mg/day oral) was 62%±5%. The “Levator ani muscle weight” value ([2]; 0.75 mg/day oral) was 125%±10%, the Prostate weight ([2]; 0.75 mg/day oral) was 107%±30% and the “Levator ani muscle weight” value ([2]; 1 mg/day oral) was 129%±10%. The Prostate weight ([2]; 1 mg/day oral) was 110%±14%.
